Experimental data reported in patent US20250163365A1, “LACTOBACILLUS REUTERI JH53 STRAIN HAVING EXCELLENT ORGANIC ACID RESISTANCE AND CONVERSION OF 1,3-PROPANDIOL FROM GLYCEROL, AND USE THEREOF” (ACTIVON CO., LTD., priority 2021, published 2025).
Values after ≈ are worked out from the molar mass of the structure shown. Where two headings read alike, the source gives them in different places.

What was measured:
[1] = tested on: Lactobacillus reuteri CH53 strain; assay: IC50 of Lactobacillus reuteri CH53 strain for metabolites (Example 1); format: cell-based
Protocol: The half-maximal inhibitory concentrations (IC50) of the Lactobacillus reuteri CH53 strain (KCTC13149BP) for major metabolites were measured. […] Thereafter, 1% (v/v) of the strain culture with OD600 nm=8.0 was inoculated into each broth and statically cultured at 37° C. for 24 hours, and the concentration at which the absorbance (OD600 nm) was half of the control was measured.

L. reuteri JH53 = assay: IC50 for organic acids, mutant strain (Example 3); format: cell-based, Lactobacillus reuteri; conditions: Limosilactobacillus reuteri, JH53, 24 h, pH 5.5, read-out: IC50 (g/L) L. reuteri JH53
Protocol: (§1) In order to confirm that the Lactobacillus reuteri JH53 strain of the present invention has enhanced organic acid resistance, the half-maximal inhibitory concentrations (IC50) for organic acids were measured. […] Thereafter, 1% (v/v) of each strain culture with OD600 nm=8.0 was inoculated into each broth and statically cultured at 37° C. for 24 hours, and the concentration at which the absorbance (OD600 nm) was half of the control was measured.

[2] = tested on: Lactobacillus reuteri CH53 strain; conditions: lactic acid and acetic acid mixed in MRS plate medium, anaerobic, 37° C., 24 hours
[3] = tested on: Lactobacillus reuteri CH53 strain; assay: Fed-batch culture of CH53 in medium supplemented with organic acid; format: cell-based; conditions: 10 g/L organic acid added, pH 5.5, fed-batch, 37° C., 100 rpm
Protocol: Cell growth and 1,3-propanediol production were measured while the Lactobacillus reuteri CH53 strain was fed-batch cultured in a medium supplemented with an organic acid. 3 L of MRS broth containing 20 g/L of glycerol, 10 g/L of proteose peptone NO. […] During culture, glucose and glycerol were continuously fed so that they could be maintained at residual concentrations of 5 to 10 g/L. Thereafter, 1% (v/v) of the strain culture with OD600 nm=8.0 was inoculated into each broth, and the absorbance (OD600 nm) was measured while fed-batch culture was carried out under conditions of 37° C. and 100 rpm. 1 mL of each culture was centrifuged at 13,000 rpm for 5 minutes, and then the supernatant was filtered through a 0.22-μm filter and the concentration of 1,3-propanediol was measured using high-performance liquid chromatography. 1,3-Propanediol production was analyzed by high-performance liquid chromatography equipped with an ion exchange column ([…], Aminex HPX-87H, Bio-Rad) and a differential refraction detector (RID) using 0.25 mM H2SO4 as a mobile phase at a flow rate of 0.6 ml/min.

L. reuteri CH53 = assay: IC50 for organic acids, parent strain (Example 3); format: cell-based, Lactobacillus reuteri; conditions: Limosilactobacillus reuteri
Protocol: as §1

[4] = Limosilactobacillus reuteri, CH53STRAIN, CH53 strain, MRS broth pH 5.5, static culture 37° C. 24 hours, concentration at which OD600 nm was half of control, read-out: IC50

## OCCCO [1,3-propanediol]
[1]; CH53 strain, MRS broth pH 5.5, static culture 37° C. 24 hours, concentration at which OD600 nm was half of control
  IC50: 79.8 mg/mL

## CC(=O)O [Acetic acid]
L. reuteri JH53
  IC50: 25.6 g/L (≈ 426 mM)
[1]; Limosilactobacillus reuteri, CH53STRAIN, 24 h, pH 5.5
  IC50: 17.4 mg/mL
[2]
  Concentration at which CH53 strain could not grow: ≥ 17.5 g/L
[3]
  Effect on 1,3-propanediol production of CH53 strain: reduced 1,3-propanediol production
  Effect on cell growth of CH53 strain: did not affect cell growth
L. reuteri CH53; CH53, 24 h, pH 5.5, read-out: IC50 (g/L) L. reuteri CH53
  IC50: 20.6 g/L (≈ 343 mM)

## CCO [Ethanol]
[1]; [4]
  IC50: 29.5 mg/mL

## CC(O)C(=O)O (centres unmarked) [Lactic acid]
L. reuteri JH53
  IC50: 36.7 g/L (≈ 407 mM)
[1]; [4]
  IC50: 27.9 mg/mL
[2]
  Concentration at which CH53 strain could not grow: ≥ 35.0 g/L
[3]
  Effect on 1,3-propanediol production of CH53 strain: reduced 1,3-propanediol production
  Effect on cell growth of CH53 strain: did not affect cell growth
L. reuteri CH53; CH53, MRS broth pH 5.5, static culture 37° C. 24 hours, OD600 nm half of control, read-out: IC50 (g/L) L. reuteri CH53
  IC50: 31.9 g/L (≈ 354 mM)
